This note sets out measurements from ChEMBL document CHEMBL1127718, “Quinoline-4-carboxylic acids as angiotensin II receptor antagonists” (Bioorg Med Chem Lett, 1994).

In assay [1] the target is T1, Type-1 angiotensin II receptor B (Rattus norvegicus, UniProt P29089).
T1 sequence (P29089 whole entry): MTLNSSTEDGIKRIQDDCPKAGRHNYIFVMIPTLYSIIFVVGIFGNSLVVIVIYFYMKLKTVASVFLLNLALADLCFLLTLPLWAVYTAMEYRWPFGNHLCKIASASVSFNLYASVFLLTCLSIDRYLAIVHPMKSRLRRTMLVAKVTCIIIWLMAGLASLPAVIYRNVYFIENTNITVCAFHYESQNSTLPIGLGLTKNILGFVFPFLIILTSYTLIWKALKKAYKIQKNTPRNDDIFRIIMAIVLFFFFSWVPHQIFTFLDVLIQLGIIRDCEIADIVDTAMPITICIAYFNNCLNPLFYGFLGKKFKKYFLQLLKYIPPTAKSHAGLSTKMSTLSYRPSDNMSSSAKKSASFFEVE
Briefly: Inhibition of [125I]Sar1,Ile8 angiotensin II binding to Angiotensin II receptor type 1 in rat adrenocortical membrane. Type of assay: cell membranes.

The species entered for assay [2] is Oryctolagus cuniculus. Briefly: In vitro functional antagonism was determined by ability of a single concentration of compound to block AII induced contractions in rabbit aortic smooth muscle strip. Particulars: Aorta.

By Ki is commonly meant a measure of affinity in units of concentration, obtained from inhibition or displacement. Read a low Ki as a stronger hold on the target. In general, Kb refers to the equilibrium dissociation constant of an antagonist, usually derived from a functional assay. Read a low Kb as higher antagonist affinity.

Take `Cc1cccc2c(C(=O)O)c(Oc3ccc(-c4ccccc4-c4nnn[nH]4)cc3)c(C3CC3)nc12`: the affinity in assay [1] corresponds to a Ki of 1300 nM. This compound displayed a Kb in assay [2] of 8.3 nM.

Consider `Cc1cccc2nc(C3CC3)c(Oc3ccc(-c4ccccc4-c4nnn[nH]4)cc3)c(C(=O)O)c12`, for which the Ki in assay [1] came to 12 nM. The same compound registered a Kb in assay [2] of 0.4 nM.

Compound `O=C(O)c1c(Oc2ccc(-c3ccccc3-c3nnn[nH]3)cc2)c(C2CC2)nc2cccnc12` showed a Ki in assay [1] of 2.1 nM. In assay [2], this compound displayed a Kb of 0.67 nM.

`O=C(O)c1c(Oc2ccc(-c3ccccc3-c3nn[nH]n3)cc2)c(C2CC2)nc2ccccc12` came in with a Ki in assay [1] of 2.9 nM. In assay [2], this compound yielded an antagonist equilibrium constant (Kb) of 0.061 nM.

As to `Cc1nc2ccccc2c(C(=O)O)c1Oc1ccc(-c2ccccc2-c2nn[nH]n2)cc1`, the Ki in assay [1] was 3.2 nM. Further, the Kb in assay [2] came out at 1.1 nM.

Regarding `O=C(O)c1c(Oc2ccc(-c3ccccc3-c3nnn[nH]3)cc2)c(C2CC2)nc2ncccc12`, in assay [1], the inhibitory constant (Ki) was found to be 4.6 nM. The compound also displayed an antagonist dissociation constant (Kb) in assay [2] of 0.76 nM.

In turn, `O=C(O)c1cccc2nc(C3CC3)c(Oc3ccc(-c4ccccc4-c4nn[nH]n4)cc3)c(C(=O)O)c12` returned a Ki in assay [1] of 120 nM. In addition, the Kb in assay [2] is 2 nM.

In assay [1], `CCc1nc2ccccc2c(C(=O)O)c1Oc1ccc(-c2ccccc2-c2nn[nH]n2)cc1` displayed a Ki of 5.9 nM. This compound also showed a Kb in assay [2] of 0.12 nM.

The compound `O=C(O)c1c(Oc2ccc(-c3ccccc3-c3nnn[nH]3)cc2)c(C2CC2)nc2ccc(F)cc12` gave a Ki in assay [1] of 14 nM. This compound also had a Kb in assay [2] of 0.61 nM.

In the case of `CCCc1nc2ccccc2c(C(=O)O)c1Oc1ccc(-c2ccccc2-c2nnn[nH]2)cc1`, in assay [1], the Ki stood at 3.4 nM. In assay [2], this compound showed a Kb of 0.091 nM.

On to `COc1ccc2nc(C3CC3)c(Oc3ccc(-c4ccccc4-c4nn[nH]n4)cc3)c(C(=O)O)c2c1`, for which, in assay [1], the Ki turned out to be 33 nM. Moreover, the Kb in assay [2] came out at 0.2 nM.

Regarding `O=C(O)c1c(Oc2ccc(-c3ccccc3-c3nn[nH]n3)cc2)c(C2CC2)nc2cc(Cl)ccc12`, in assay [1], the inhibition constant Ki turned out to be 32 nM. The Kb in assay [2] was 0.18 nM.
